US7790742B2, “Substituted 4-phenyltetrahydroisoquinolines, pharmaceutical compositions thereof, methods for their preparation and therapeutic use” (Sanofi-Aventis Deutschland GmbH, priority 2004, dated 2010)

Legend:
NHE3 = target: T1, NHE3 (Homo sapiens, UniProt P48764); experiment: Determination of the NHE-inhibitory effect (recovery of intracellular pH after acidification, BCECF); type: cell-based; conditions: BCECF fluorescence, NHE subtype not given
T1 construct: host or cells: cells, not specified
T1 sequence (P48764 26-834): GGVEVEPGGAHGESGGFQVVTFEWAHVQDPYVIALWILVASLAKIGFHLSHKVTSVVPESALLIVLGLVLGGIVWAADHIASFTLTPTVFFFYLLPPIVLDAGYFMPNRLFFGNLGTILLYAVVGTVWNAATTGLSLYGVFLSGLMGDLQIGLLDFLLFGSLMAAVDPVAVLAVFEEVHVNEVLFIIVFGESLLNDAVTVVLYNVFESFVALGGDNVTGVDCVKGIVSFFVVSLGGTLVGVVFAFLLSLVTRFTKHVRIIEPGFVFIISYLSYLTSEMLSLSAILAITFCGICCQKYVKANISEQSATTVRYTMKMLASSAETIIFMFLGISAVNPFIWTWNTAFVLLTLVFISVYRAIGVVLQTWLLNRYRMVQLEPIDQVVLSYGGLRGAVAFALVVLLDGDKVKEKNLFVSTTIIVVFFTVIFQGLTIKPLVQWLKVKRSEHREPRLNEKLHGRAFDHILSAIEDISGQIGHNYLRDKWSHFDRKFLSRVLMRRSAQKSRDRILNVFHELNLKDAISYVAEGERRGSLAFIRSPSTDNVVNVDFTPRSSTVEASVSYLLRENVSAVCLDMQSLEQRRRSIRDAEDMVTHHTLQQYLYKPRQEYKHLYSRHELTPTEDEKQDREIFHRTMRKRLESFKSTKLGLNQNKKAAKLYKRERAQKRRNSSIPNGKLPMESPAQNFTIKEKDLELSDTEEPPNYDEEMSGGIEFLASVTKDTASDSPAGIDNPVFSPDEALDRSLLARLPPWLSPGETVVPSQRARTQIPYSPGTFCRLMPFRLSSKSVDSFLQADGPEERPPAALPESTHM
Protocol: [drawing 82] was obtained in analogy to the method indicated in Example 16 from 6,8-dichloro-2-methyl-4(R)-[2N-(2-ethoxy-3,4-dioxocyclobuten-1-yl)amino]-phenyl-1,2,3,4-tetrahydroisoquinoline (Example 6) and methylamine. Crystalline solid, m.p. 265° C. Pharmacological Data: Assay: Determination of the NHE-Inhibitory Effect
In this assay, the recovery of the intracellular pH (pHj) after an acidification which occurs even under bicarbonate-free conditions with functional NHE was determined. To this end, the pHj was determined using the pH-sensitive fluorescent dye BCECF (calbiochem, the precursor BCECF-AM was employed). The cells were initially loaded with BCECF. The BCECF fluorescence was determined in a ratio fluorescence spectrometer (Photon Technology International, South Brunswick, N.J., USA) with excitation wavelengths of 505 and 440 nm and an emission wavelength of 535 nm and converted into the pHj using calibration plots. The cells had been incubated in NH4Cl buffer (pH 7.4) for the BCECF loading (NH4Cl buffer: 115 mM NaCl, 20 mM NH4Cl, 5 mM KCl, 1 mM CaCl2, 1 mM MgSO4, 20 mM Hepes, 5 mM glucose, 1 mg/ml BSA; a pH of 7.4 was adjusted with 1 M NaOH). The intracellular acidification was induced by adding 975 μl of an NH4Cl-free buffer (see below) to 25 μl aliquots of the cells incubated in NH4Cl buffer. The subsequent rate of pH recovery was recorded for two minutes with NHE1, five minutes with NHE2 and three minutes with NHE3. To calculate the inhibitory power of the tested substances, the cells were initially investigated in buffers with which there was complete or absolutely no pH recovery. For complete pH recovery (100%), the cells were incubated in Na^+-containing buffer (133.8 mM NaCl, 4.7 mM KCl, 1.25 mM CaCl2, 1.25 mM MgCl2, 0.97 mM Na2HPO4, 0.23 mM NaH2PO4, 5 mM Hepes, 5 mM glucose, a pH of 7.0 was adjusted with 1 M NaOH). To determine the 0% value, the cells were incubated in an Na^+-free buffer (133.8 mM choline chloride, 4.7 mM KCl, 1.25 mM CaCl2, 1.25 mM MgCl2, 0.97 mM K2HPO4, 0.23 mM KH2PO4, 5 mM Hepes, 5 mM glucose, a pH of 7.0 was adjusted with 1 M NaOH). The substances to be tested were made up in the Na^+-containing buffer. The recovery of the intracellular pH at each tested concentration of a substance was expressed as a percentage of the maximum recovery. The IC50 of the respective substance for the individual NHE subtypes was calculated from the percentages of pH recovery using the Sigma Plot program.

IC50 (NHE3) | melting point | Structure (SMILES)
260 nM | 208 to 214 °C | CN1Cc2c(Cl)cc(Cl)cc2C(c2ccc(Nc3c(N(C)C)c(=O)c3=O)cc2)C1 (stereo not shown) [Example 18, 6,8-dichloro-2-methyl-4-[4N-(2-dimethylamino-3,4-dioxocyclobuten-1-yl)amino]phenyl-1,2,3,4-tetrahydroisoquinoline]
1150 nM | 275 to 280 °C | CCN(CC)c1c(Nc2ccc(C3CN(C)Cc4c(Cl)cc(Cl)cc43)cc2)c(=O)c1=O (stereo not shown) [Example 19, 6,8-dichloro-2-methyl-4-[4N-(2-diethylamino-3,4-dioxocyclobuten-1-yl)amino]phenyl-1,2,3,4-tetrahydroisoquinoline]
98.5 nM | – | CN1Cc2c(Cl)cc(Cl)cc2[C@H](c2cccc(Nc3c(N(C)C)c(=O)c3=O)c2)C1 [Example 22, 6,8-dichloro-2-methyl-4(S)-[3N-(2-dimethylamino-3,4-dioxocyclobuten-1-yl)amino]phenyl-1,2,3,4-tetrahydroisoquinoline]
2490 nM | – | CCCN(CCC)c1c(Nc2ccc(C3CN(C)Cc4c(Cl)cc(Cl)cc43)cc2)c(=O)c1=O (stereo not shown) [Example 24, 6,8-dichloro-2-methyl-4-[4N-(2-dipropylamino-3,4-dioxocyclobuten-1-yl)amino]phenyl-1,2,3,4-tetrahydroisoquinoline]
2810 nM | > 310 °C | CC(C)CN(C)c1c(Nc2ccc(C3CN(C)Cc4c(Cl)cc(Cl)cc43)cc2)c(=O)c1=O (stereo not shown) [Example 25, 6,8-dichloro-2-methyl-4-[4N-(2-(N-isobutyl-N-methylamino)-3,4-dioxocyclobuten-1-yl)amino]phenyl-1,2,3,4-tetrahydroisoquinoline]
1700 nM | 206 to 210 °C | COCCN(C)c1c(Nc2ccc(C3CN(C)Cc4c(Cl)cc(Cl)cc43)cc2)c(=O)c1=O (stereo not shown) [Example 26]
210 nM | 220 to 225 °C | CCN(CC)c1c(Nc2ccc([C@@H]3CN(C)Cc4c(Cl)cc(Cl)cc43)cc2)c(=O)c1=O [Example 27, 6,8-dichloro-2-methyl-4(S)-[4N-(2-diethylamino-3,4-dioxocyclobuten-1-yl)amino]phenyl-1,2,3,4-tetrahydroisoquinoline]
260 nM | 165 to 175 °C (dec.) | CC(C)N(C)c1c(Nc2ccc([C@@H]3CN(C)Cc4c(Cl)cc(Cl)cc43)cc2)c(=O)c1=O [Example 28, 6,8-dichloro-2-methyl-4(S)-[4N-(2-(N-isopropyl-N-methylamino)-3,4-dioxocylcobuten-1-yl)amino]phenyl-1,2,3,4-tetrahydroisoquinoline]
7140 nM | 134 to 144 °C | CCCN(CC1CC1)c1c(Nc2ccc(C3CN(C)Cc4c(Cl)cc(Cl)cc43)cc2)c(=O)c1=O (stereo not shown) [Example 29, 6,8-dichloro-2-methyl-4-[4N-(2-(N-cyclopropylmethyl-N-propylamino)-3,4-dioxocyclobuten-1-yl)amino]phenyl-1,2,3,4-tetrahydro-isoquinoline]
140 nM | 125 to 135 °C | CCN(CC)c1c(Nc2cccc([C@@H]3CN(C)Cc4c(Cl)cc(Cl)cc43)c2)c(=O)c1=O [Example 30]
130 nM | 135 to 150 °C | CC(C)N(C)c1c(Nc2cccc([C@@H]3CN(C)Cc4c(Cl)cc(Cl)cc43)c2)c(=O)c1=O [Example 31]
680 nM | 160 to 190 °C | CCN(c1c(Nc2ccc([C@@H]3CN(C)Cc4c(Cl)cc(Cl)cc43)cc2)c(=O)c1=O)C(C)C [Example 32]
31 nM | 135 to 140 °C | CCCN(C)c1c(Nc2cccc([C@@H]3CN(C)Cc4c(Cl)cc(Cl)cc43)c2)c(=O)c1=O [Example 33]
52 nM | 138 to 143 °C | CN1Cc2c(Cl)cc(Cl)cc2[C@H](c2cccc(Nc3c(N4CCCC4)c(=O)c3=O)c2)C1 [Example 34, 6,8-dichloro-2-methyl-4(S)-[3N-(2-N-pyrrolidino-3,4-dioxocyclobuten-1-yl)amino]phenyl-1,2,3,4-tetrahydroisoquinoline]
230 nM | 264 to 270 °C | CN1Cc2c(Cl)cc(Cl)cc2[C@H](c2ccc(Nc3c(N4CCCC4)c(=O)c3=O)cc2)C1 [Example 36, 6,8-dichloro-2-methyl-4(S)-[4N-(2-N-pyrrolidino-3,4-dioxocyclobuten-1-yl)amino]phenyl-1,2,3,4-tetrahydroisoquinoline]
850 nM | 236 to 240 °C | CCCN(C)c1c(Nc2ccccc2[C@@H]2CN(C)Cc3c(Cl)cc(Cl)cc32)c(=O)c1=O [Example 37]
8000 nM | 158 to 162 °C | CN1Cc2c(Cl)cc(Cl)cc2C(c2ccc(Nc3c(N(C)Cc4ccccc4)c(=O)c3=O)cc2)C1 (stereo not shown) [Example 38]
1520 nM | 246 to 250 °C | CCN(CC)c1c(Nc2ccccc2[C@@H]2CN(C)Cc3c(Cl)cc(Cl)cc32)c(=O)c1=O [Example 39, 6,8-dichloro-2-methyl-4(R)-[2N-(2-diethylamino-3,4-dioxocyclobuten-1-yl)amino]phenyl-1,2,3,4-tetrahydroisoquinoline]
240 nM | 190 to 194 °C | CCCN(CCC)c1c(Nc2ccccc2[C@@H]2CN(C)Cc3c(Cl)cc(Cl)cc32)c(=O)c1=O [Example 40]
110 nM | 220 to 224 °C | CN1Cc2c(Cl)cc(Cl)cc2[C@H](c2ccccc2Nc2c(N3CCCC3)c(=O)c2=O)C1 [Example 41, 6,8-dichloro-2-methyl-4(R)-[2N-(2-N-pyrrolidino-3,4-dioxocyclobuten-1-yl)amino]phenyl-1,2,3,4-tetrahydroisoquinoline]
150 nM | 210 to 214 °C | CC(C)N(C)c1c(Nc2ccccc2[C@@H]2CN(C)Cc3c(Cl)cc(Cl)cc32)c(=O)c1=O [Example 42]
